Assay results taken from US9593149B2, “Amylin and calcitonin receptor agonist” (Novo Nordisk A/S, priority 2014, dated 2017).
Converted amounts (≈) assume the structure as drawn. Numbered stars: 1 amine (or outer) side, 2 acyl side, 3 side chain; on linkers, the order of the positions; unused ones are H or OH. Peptide text beside a SMILES is read from it. * marks the point of attachment. C18 diacid = O=C(O)CCCCCCCCCCCCCCCCC(=O)*; γGlu = O=C(O)[C@H](CCC(=O)[*:2])N[*:1]

How the values were obtained:
[1] = molecular target: T1, human calcitonin receptor, BHK tk'ts 13 cells (Homo sapiens, UniProt P30988); assay: Assay (VIIa) binding to the human calcitonin receptor (whole cell); settings: read-out: hCT-R binding IC50
T1 construct: expressed in transfected cells; host or cells: BHK tk'ts 13
T1 sequence (P30988 25-474): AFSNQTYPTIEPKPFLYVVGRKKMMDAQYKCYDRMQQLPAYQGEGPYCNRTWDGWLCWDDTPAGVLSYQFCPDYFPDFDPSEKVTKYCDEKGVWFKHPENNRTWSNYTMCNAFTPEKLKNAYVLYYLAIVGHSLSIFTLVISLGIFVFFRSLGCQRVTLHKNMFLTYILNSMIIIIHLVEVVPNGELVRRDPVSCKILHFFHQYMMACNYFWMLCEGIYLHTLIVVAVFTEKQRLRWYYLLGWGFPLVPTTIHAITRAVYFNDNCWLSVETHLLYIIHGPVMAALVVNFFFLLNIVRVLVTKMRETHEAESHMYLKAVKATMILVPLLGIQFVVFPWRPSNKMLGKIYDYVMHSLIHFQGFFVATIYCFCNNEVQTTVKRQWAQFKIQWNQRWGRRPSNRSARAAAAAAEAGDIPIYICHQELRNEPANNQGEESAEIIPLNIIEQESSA
Description: Assay (VIIa)—Determination of Binding to the Human Calcitonin Receptor (Whole Cell Binding)
The binding assay was performed using a BHK tk'ts 13 cell line was stably transfected with the human calcitonin receptor, and a CRE-responsive luciferase reporter gene.
The day before the assay the cells were Seeded into Poly-D-Lysin coated 384W Opaque White, BD BioCoat plates (10000 cells/well) and Incubated overnight at 37° C., 5% CO2, 95% humidity. Then, the cells were washed in HBSS (4° C.), and incubated overnight at 4° C. in a binding buffer containing test compounds, 50 pM [125I]-human calcitonin, media w/o phenol red, 500 ml 0.1% ovalbumin (5 ml 10% ovalbumin) 10 mM Hepes (5 ml 1M) 1× Glutamin (5 ml 100×) 1% P/S (5 ml 100%) Complete (1 tablet/50 ml) 0.1% Pluronic F68®. The morning after, the plates were washed three times in HBSS (4° C.), and lyzed in Lysis buffer (0.1 M NaOH), 1% SDS. Scintillation cocktail (MicroScint40®) was added and the plates were shaken at 500 rpm for a short period. The plate was incubated at room temperature in the dark for 1 hour and Read on a TopCounter™ (Packard). The IC50 was calculated using (one site binding competition analysis) GraphPad Prism5 as a measure of receptor affinity. Assay (VIII)—Determination of Binding to the Rat Calcitonin Receptor

[2] = molecular target: T2, human amylin 3(a) receptor (human calcitonin receptor + RAMP-3), BHK570 cells (Homo sapiens, UniProt O60896+P30988); assay: Assay (II)b functional CRE-luciferase assay without albumin, human amylin receptor; type: cell-based; settings: Tested without HSA; read-out: hAmylin-R funct. EC50
T2 construct: host or cells: BHK570
How it was run: (§1)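 BHK570 cells stably expressing human calcitonin receptor with CRE-luciferase reporter, plus RAMP-3 for the amylin 3(a) line. Cells stimulated 3 hours at 37 °C in albumin-free assay medium (0.1% ovalbumin, 10 mM Hepes pH 7.4); cAMP-driven luciferase read by luminescence.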

[3] = molecular target: T3, human amylin receptor (human calcitonin receptor + human RAMP3), BHK tk'ts 13 cells (Homo sapiens, UniProt O60896+P30988); assay: Assay (Va) binding to the human amylin receptor (whole cell); settings: read-out: hAmylin-R binding IC50
T3 construct: expressed in transfected cells; host or cells: BHK tk'ts 13
Description: The day before the assay the cells were Seeded into Poly-D-Lysin coated 384W Opaque White, BD BioCoat plates (10000 cells/well) and Incubated overnight at 37° C., 5% CO2, 95% humidity.

[4] = molecular target: T4, human calcitonin (a) receptor, BHK570 cells (Homo sapiens, UniProt P30988); assay: Assay (II)b functional CRE-luciferase assay without albumin, human calcitonin receptor; type: cell-based; settings: Tested without HSA; read-out: hCTR funct. EC50
T4 construct: host or cells: BHK570
T4 sequence (P30988 25-474): T1 sequence (P30988 25-474)
How it was run: as §1

[5] = Assay (IV) determination of solubility; type: physicochemical
Description: Assay (IV)—Determination of Solubility
The mimylin peptide was dissolved in water at ˜500 nmol/ml and mixed 1:1 with a series of buffers (100 mM glycylglycine pH 3.0, 100 mM glycylglycine pH 4.0, 100 mM glycylglycine pH 5.0, 100 mM bistrispropane pH 6.0, 100 mM bistrispropane pH 6.5, 100 mM bistrispropane pH 7.0, 100 mM bistrispropane pH 7.5, 100 mM bistrispropane pH 8.0).

[6] = molecular target: T2, human amylin 3(a) receptor (human calcitonin receptor + RAMP-3), BHK570 cells; assay: Assay (II)a functional CRE-luciferase assay with albumin, human amylin receptor; type: cell-based; settings: Tested with HSA; read-out: hAmylin-R funct. EC50
How it was run: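 BHK570 cells stably carry a CRE-luciferase reporter and the calcitonin receptor; co-transfected RAMP-3 gives the amylin 3(a) receptor line. Cells were treated for 3 h at 37 °C in DMEM with 10% FBS and 10 mM Hepes, pH 7.4. cAMP-driven luciferase was read by LucLite luminescence after 30 min at RT.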

T3 sequence (O60896 24-148, one chain of several): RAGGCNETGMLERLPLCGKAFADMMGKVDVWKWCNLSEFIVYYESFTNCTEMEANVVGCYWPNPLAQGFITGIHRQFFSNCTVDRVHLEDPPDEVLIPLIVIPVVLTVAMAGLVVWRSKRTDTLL
T2 sequence (O60896 24-148, one chain of several): as above

**Q.** With `CC[C@H](C)[C@H](NC(=O)[C@H](C)NC(=O)[C@@H](NC(=O)[C@H](CO)NC(=O)[C@@H](NC(=O)[C@H](CCC(=O)O)NC(=O)[C@H](CO)NC(=O)[C@H](C)NC(=O)[C@H](CCC(=O)O)NC(=O)CCCCCCCCCCCCCCCCC(=O)O)[C@@H](C)CC)[C@@H](C)O)C(=O)N[C@@H](CC(C)C)C(=O)NCC(=O)N[C@@H](CCCNC(=N)N)C(=O)N[C@@H](CC(C)C)C(=O)N[C@@H](CO)C(=O)N[C@@H](C)C(=O)N[C@@H](CCC(=O)O)C(=O)N[C@@H](CC(C)C)C(=O)N[C@@H](Cc1c[nH]cn1)C(=O)N[C@@H](CCC(=O)O)C(=O)N[C@@H](CC(C)C)C(=O)N[C@@H](C)C(=O)N[C@H](C(=O)N[C@@H](CC(C)C)C(=O)N1CCC[C@H]1C(=O)N[C@@H](CCCNC(=N)N)C(=O)N[C@H](C(=O)N[C@@H](CCC(=O)O)C(=O)N[C@H](C(=O)NCC(=O)N1CCC[C@H]1C(=O)N[C@@H](CCC(=O)O)C(=O)N[C@@H](CO)C(=O)N1CCC[C@H]1C(N)=O)[C@@H](C)O)[C@@H](C)O)[C@@H](C)O` [compound 25, [N-terminal(C18 diacid), 5I, 9I]mimylin] as the compound, how does the IC50 [1] read?
**A.** Its IC50 is 413 pM.

**Q.** What about the EC50 [2] of the same compound?
**A.** The EC50 was 10 pM.

**Q.** And the IC50 [3]?
**A.** The IC50 was 400 pM.

**Q.** What about the EC50 [4] of the same compound?
**A.** Its EC50 is 7 pM.

**Q.** And the solubility at 18 h ([5]; bistrispropane buffer, pH 6.5)?
**A.** The solubility at 18 h was no less than 200 µM.

**Q.** What about the solubility at 18 h ([5]; bistrispropane buffer, pH 7.5) of the same compound?
**A.** Its solubility at 18 h is no less than 200 µM.

**Q.** What about the solubility at 18 h ([5]; bistrispropane buffer, pH 6.0) of the same compound?
**A.** The solubility at 18 h was no less than 200 µM.

**Q.** And the solubility at 18 h ([5]; bistrispropane buffer, pH 7.0)?
**A.** The solubility at 18 h was no less than 200 µM.

**Q.** What about the solubility at 18 h ([5]; bistrispropane buffer, pH 8.0) of the same compound?
**A.** The solubility at 18 h was no less than 200 µM.

**Q.** And the solubility at 18 h ([5]; glycylglycine buffer, pH 3.0)?
**A.** The solubility at 18 h was no less than 200 µM.

**Q.** And the solubility at 18 h ([5]; glycylglycine buffer, pH 4.0)?
**A.** The solubility at 18 h was 218 µM (≈ 822 µg/mL).

**Q.** And the solubility at 18 h ([5]; glycylglycine buffer, pH 5.0)?
**A.** Its solubility at 18 h is no less than 200 µM.

**Q.** Which IC50 [1] does the source give for `CC(C)C[C@H](NC(=O)[C@H](CCC(=O)O)NC(=O)[C@H](Cc1c[nH]cn1)NC(=O)[C@H](CC(C)C)NC(=O)[C@H](CCC(=O)O)NC(=O)[C@H](C)NC(=O)[C@H](CO)NC(=O)[C@H](CC(C)C)NC(=O)[C@H](CCCNC(=N)N)NC(=O)CNC(=O)[C@H](CC(C)C)NC(=O)[C@@H](NC(=O)[C@H](C)NC(=O)[C@@H](NC(=O)[C@@H](NC(=O)[C@H](CC(C)C)NC(=O)[C@H](CCC(=O)O)NC(=O)[C@H](CO)NC(=O)[C@H](C)NC(=O)CC[C@H](NC(=O)CCCCCCCCCCCCCCCCC(=O)O)C(=O)O)[C@@H](C)O)[C@@H](C)O)C(C)C)C(=O)N[C@@H](C)C(=O)N[C@H](C(=O)N[C@@H](CC(C)C)C(=O)N1CCC[C@H]1C(=O)N[C@@H](CCCNC(=N)N)C(=O)N[C@H](C(=O)N[C@@H](CCC(=O)O)C(=O)N[C@H](C(=O)NCC(=O)N[C@@H](CO)C(=O)NCC(=O)N[C@H](C(=O)N1CCC[C@H]1C(N)=O)[C@@H](C)O)[C@@H](C)O)[C@@H](C)O)[C@@H](C)O` [compound 94, [N-terminal(C18 diacid-gGlu), des1, 6T, 9V, 30S, 31G, 32T]mimylin] ({C18 diacid-γGlu}-ASELTTAVLGRLSAELHELATLPRTETGSGTP-NH2) here?
**A.** The IC50 was 651 pM.

**Q.** What about the EC50 [2] of the same compound?
**A.** The EC50 was 42 pM.

**Q.** What about the IC50 [3] of the same compound?
**A.** The IC50 was 652 pM.

**Q.** What about the EC50 [4] of the same compound?
**A.** The EC50 was 30 pM.

**Q.** What about the solubility at 18 h ([5]; bistrispropane buffer, pH 6.5) of the same compound?
**A.** The solubility at 18 h was no less than 200 µM.

**Q.** What about the solubility at 18 h ([5]; bistrispropane buffer, pH 7.5) of the same compound?
**A.** Its solubility at 18 h is no less than 200 µM.

**Q.** And the solubility at 18 h ([5]; bistrispropane buffer, pH 6.0)?
**A.** The solubility at 18 h was no less than 200 µM.

**Q.** What about the solubility at 18 h ([5]; bistrispropane buffer, pH 7.0) of the same compound?
**A.** Its solubility at 18 h is no less than 200 µM.

**Q.** And the solubility at 18 h ([5]; bistrispropane buffer, pH 8.0)?
**A.** Its solubility at 18 h is no less than 200 µM.

**Q.** And the solubility at 18 h ([5]; glycylglycine buffer, pH 3.0)?
**A.** Its solubility at 18 h is no less than 200 µM.

**Q.** And the solubility at 18 h ([5]; glycylglycine buffer, pH 4.0)?
**A.** The solubility at 18 h was no less than 200 µM.

**Q.** And the solubility at 18 h ([5]; glycylglycine buffer, pH 5.0)?
**A.** The solubility at 18 h was no less than 200 µM.

**Q.** What about the EC50 [6] of the same compound?
**A.** Its EC50 is 30 pM.

**Q.** With `CC(C)C[C@H](NC(=O)[C@H](C)NC(=O)[C@H](C)NC(=O)[C@@H](NC(=O)[C@H](CO)NC(=O)[C@H](CC(C)C)NC(=O)[C@H](CCC(=O)O)NC(=O)[C@H](CO)NC(=O)[C@H](C)NC(=O)[C@@H](N)CCC(=O)O)[C@@H](C)O)C(=O)NCC(=O)N[C@@H](CCCNC(=N)N)C(=O)N[C@@H](CC(C)C)C(=O)N[C@@H](CO)C(=O)N[C@@H](C)C(=O)N[C@@H](CCC(=O)O)C(=O)N[C@@H](CC(C)C)C(=O)N[C@@H](Cc1c[nH]cn1)C(=O)N[C@@H](CCC(=O)O)C(=O)N[C@@H](CC(C)C)C(=O)N[C@@H](C)C(=O)N[C@H](C(=O)N[C@@H](CC(C)C)C(=O)N1CCC[C@H]1C(=O)N[C@@H](CCCNC(=N)N)C(=O)N[C@H](C(=O)N[C@@H](CCC(=O)O)C(=O)N[C@H](C(=O)NCC(=O)N1CCC[C@H]1C(=O)N[C@@H](CCC(=O)O)C(=O)N[C@@H](CO)C(=O)N1CCC[C@H]1C(N)=O)[C@@H](C)O)[C@@H](C)O)[C@@H](C)O` [Ex. #1, mimylin] (H-EASELSTAALGRLSAELHELATLPRTETGPESP-NH2) as the compound, how does the IC50 [1] read?
**A.** The IC50 was 431 pM.

**Q.** And the EC50 [2]?
**A.** Its EC50 is 3 pM.

**Q.** What about the IC50 [3] of the same compound?
**A.** The IC50 was 511 pM.
